Patent US20250025473A1 (priority 2021, published 2025)
Like-named read-outs stand apart in the source and are kept apart here.

Tests used:
[1] = test system: phosphorylated Akt (pAkt T308); type: cell-based, human
HaCat cells [2] = assay: Apoptosis assays (activated caspases, SYTOX Green, cleaved PARP-1/caspase 8)
VSV-G = type: cell-based
[3] = test system: VSV-S (VSV pseudotyped with SARS-CoV-2 spike protein); type: cell-based
c-Src = c-Src (Homo sapiens, UniProt P12931); assay: HotSpot in vitro kinase assay, c-Src; details: read-out: Compound IC50, c-Src; in vitro kinase activity
Sequence of c-Src (P12931 whole entry): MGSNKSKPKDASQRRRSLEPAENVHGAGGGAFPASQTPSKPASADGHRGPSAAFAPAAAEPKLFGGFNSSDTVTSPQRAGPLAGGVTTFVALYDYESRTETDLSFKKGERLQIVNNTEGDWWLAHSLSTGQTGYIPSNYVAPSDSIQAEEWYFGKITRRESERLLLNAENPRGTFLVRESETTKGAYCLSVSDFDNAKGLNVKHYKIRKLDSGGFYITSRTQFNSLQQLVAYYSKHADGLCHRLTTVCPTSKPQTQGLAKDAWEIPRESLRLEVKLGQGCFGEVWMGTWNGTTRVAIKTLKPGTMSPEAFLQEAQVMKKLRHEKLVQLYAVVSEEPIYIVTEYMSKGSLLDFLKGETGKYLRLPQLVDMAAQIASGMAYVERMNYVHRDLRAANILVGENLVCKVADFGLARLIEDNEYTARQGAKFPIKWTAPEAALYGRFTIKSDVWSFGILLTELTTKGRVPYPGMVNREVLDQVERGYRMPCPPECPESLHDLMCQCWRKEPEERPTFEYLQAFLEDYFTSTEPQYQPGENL

AKT1 = target: T1, AKT1 (Homo sapiens, UniProt P31749); assay: HotSpot in vitro kinase assay, AKT1; type: biochemical
T1 construct: purchased Reaction Biology Corporation
T1 sequence (P31749 whole entry): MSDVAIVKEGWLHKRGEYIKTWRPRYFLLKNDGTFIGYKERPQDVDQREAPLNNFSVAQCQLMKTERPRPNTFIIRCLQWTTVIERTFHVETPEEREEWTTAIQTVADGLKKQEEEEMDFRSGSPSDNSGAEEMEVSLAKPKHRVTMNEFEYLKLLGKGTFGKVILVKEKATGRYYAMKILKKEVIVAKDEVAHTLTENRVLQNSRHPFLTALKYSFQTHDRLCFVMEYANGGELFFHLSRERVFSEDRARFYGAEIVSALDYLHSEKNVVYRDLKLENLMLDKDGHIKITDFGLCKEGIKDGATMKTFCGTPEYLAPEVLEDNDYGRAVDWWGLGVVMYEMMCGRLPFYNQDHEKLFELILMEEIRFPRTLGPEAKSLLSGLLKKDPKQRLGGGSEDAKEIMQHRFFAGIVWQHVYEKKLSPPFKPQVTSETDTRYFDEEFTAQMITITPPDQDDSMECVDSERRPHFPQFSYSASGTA

HSV-2(G) [4] = assay: Synchronized HSV infection (entry kinetics) plaque assay; details: 10 μM, HaCat, 0.5, 1, 1.5 or 2 hours post-temperature shift
PLSCR1 [5] = assay: PLSCR1 phosphorylation after HSV-2 (immunoprecipitation/Western); type: cell-based, human; details: 10 μM, HaCat, 30 minutes
ABL1 = ABL1 (Homo sapiens, UniProt P00519); assay: HotSpot in vitro kinase assay, ABL1; details: read-out: Compound IC50, ABL1; in vitro kinase activity
HaCat cells [6] = assay: Cell proliferation, ~50% confluent HaCat (Cell Titer 96 Aqueous One)
intracellular Ca2+ = assay: Calcium kinetic measurements (Fura-2) after HSV exposure; type: cell-based, human; details: 10 μM, HaCat
Protocol: The cells were then washed, lysed and Western blots of cell lysates prepared and probed with a mAb to gD as a marker of cell-bound virus and anti-3-actin as a loading control. […] Representative responses are shown for the first 30 minutes (left) and the mean calcium released over the first 3 minutes and then the extended response in the first hour following viral exposure were calculated from 4 wells in 3 independent experiments, each containing 5×10^4 cells (right). Asterisks indicate statistically significant differences by ANOVA (*, p<0.05, ** p<0.01, *** p<0.001) relative to control cells (mock-infected, DMSO). […] Nuclei were stained blue with DAPI. Images are representative of 2 independent experiments. […] Nuclei are stained blue (DAPI). Images were obtained with ZeissLive/DuoScan (objective 100×1.4, bar=10 μm) are representative of 2 independent experiments; quantification is shown in FIG. 11.
The cells were then transferred to SpectraMax® MF^e temperature-regulated chamber at 37° C. […] An intracellular calibration was performed with each experiment by determining the fluorescence ratio (340:380) in the presence of Ca-free 10 mM K2EGTA buffer (Rmin) and 10 mM CaEGTA buffer containing 10 μM ionomycin (Rmax) (C-3008, Calcium Calibration Buffer Kit #1, Invitrogen Molecular Probes™).

HSV-1 K26GFP = assay: HSV capsid entry, GFP+ cells by confocal imaging; details: HaCat, CIMSS 10 μM, anti-Akt 2 μg/ml, cycloheximide 10 μg/ml
EGFR = EGFR (Homo sapiens, UniProt P00533); assay: HotSpot in vitro kinase assay, EGFR; details: read-out: Compound IC50, EGFR; in vitro kinase activity
Sequence of EGFR (P00533 25-1210): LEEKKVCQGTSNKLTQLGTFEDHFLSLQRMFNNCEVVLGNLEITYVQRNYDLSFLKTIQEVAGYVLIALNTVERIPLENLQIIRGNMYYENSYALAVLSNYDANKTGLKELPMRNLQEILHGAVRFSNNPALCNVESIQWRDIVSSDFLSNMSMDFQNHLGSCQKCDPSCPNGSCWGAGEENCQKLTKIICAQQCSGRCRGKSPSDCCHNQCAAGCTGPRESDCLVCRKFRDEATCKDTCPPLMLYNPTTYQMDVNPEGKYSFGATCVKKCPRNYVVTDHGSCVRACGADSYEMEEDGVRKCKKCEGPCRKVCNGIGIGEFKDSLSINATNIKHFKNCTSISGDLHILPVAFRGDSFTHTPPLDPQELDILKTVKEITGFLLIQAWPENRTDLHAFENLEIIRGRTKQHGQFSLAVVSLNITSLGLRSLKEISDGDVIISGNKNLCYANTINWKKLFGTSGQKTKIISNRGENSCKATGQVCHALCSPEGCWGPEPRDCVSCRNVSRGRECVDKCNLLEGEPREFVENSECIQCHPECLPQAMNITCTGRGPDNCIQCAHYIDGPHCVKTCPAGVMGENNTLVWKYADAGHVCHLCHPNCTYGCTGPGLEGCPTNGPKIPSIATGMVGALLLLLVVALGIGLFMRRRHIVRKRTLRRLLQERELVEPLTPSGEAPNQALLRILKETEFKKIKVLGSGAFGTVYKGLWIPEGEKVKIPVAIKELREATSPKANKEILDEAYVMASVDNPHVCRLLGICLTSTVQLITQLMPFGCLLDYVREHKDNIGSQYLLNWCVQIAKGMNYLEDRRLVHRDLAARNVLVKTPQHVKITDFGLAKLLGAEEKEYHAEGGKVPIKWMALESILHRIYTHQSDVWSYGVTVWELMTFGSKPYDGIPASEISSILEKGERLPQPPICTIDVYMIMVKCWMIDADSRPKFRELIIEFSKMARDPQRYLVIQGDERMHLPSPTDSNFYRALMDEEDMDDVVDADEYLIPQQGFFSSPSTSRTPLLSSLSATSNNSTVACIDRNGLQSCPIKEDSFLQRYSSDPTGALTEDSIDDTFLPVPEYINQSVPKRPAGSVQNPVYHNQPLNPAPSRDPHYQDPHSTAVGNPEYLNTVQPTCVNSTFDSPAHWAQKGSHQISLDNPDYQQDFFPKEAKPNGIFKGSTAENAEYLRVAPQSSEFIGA

[7] = test system: phosphatidylserine (PtdS) and Akt; assay: Translocation of PtdS and Akt to the outer leaflet after HSV-2 (confocal, non-permeabilized); type: cell-based, human; details: 10 μM, HaCat, HSV-2(G)
MDCK-MDR1 cells = details: 5 μM
panel of 393 kinases [8] = target: T2, panel of 393 kinases (Homo sapiens, UniProt Q9BQI3); assay: biochemical; details: CIMSS 10 μM, 10 μM ATP
T2 construct: purchased Reaction Biology Corporation
T2 sequence (Q9BQI3 whole entry): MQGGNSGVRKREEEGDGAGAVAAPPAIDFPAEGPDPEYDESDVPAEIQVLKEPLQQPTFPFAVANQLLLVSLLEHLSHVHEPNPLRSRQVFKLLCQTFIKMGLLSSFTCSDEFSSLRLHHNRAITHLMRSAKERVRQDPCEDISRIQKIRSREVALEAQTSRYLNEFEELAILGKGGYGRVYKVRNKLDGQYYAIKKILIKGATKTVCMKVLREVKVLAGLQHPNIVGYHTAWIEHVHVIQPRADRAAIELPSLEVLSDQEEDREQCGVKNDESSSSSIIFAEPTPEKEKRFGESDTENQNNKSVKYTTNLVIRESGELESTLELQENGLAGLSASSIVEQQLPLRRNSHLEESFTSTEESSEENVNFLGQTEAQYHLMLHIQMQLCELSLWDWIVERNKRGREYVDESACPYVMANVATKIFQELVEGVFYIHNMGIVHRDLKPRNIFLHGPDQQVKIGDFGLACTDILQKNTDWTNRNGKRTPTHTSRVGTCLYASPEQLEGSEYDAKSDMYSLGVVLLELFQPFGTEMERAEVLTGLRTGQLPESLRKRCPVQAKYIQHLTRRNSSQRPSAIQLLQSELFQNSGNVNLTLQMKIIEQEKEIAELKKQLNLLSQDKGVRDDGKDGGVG

panel of 393 kinases [9] = target: T3, panel of 393 kinases (Homo sapiens, UniProt O00418); assay: biochemical; details: CIMSS 10 μM, 10 μM ATP
T3 construct: purchased Reaction Biology Corporation
T3 sequence (O00418 whole entry): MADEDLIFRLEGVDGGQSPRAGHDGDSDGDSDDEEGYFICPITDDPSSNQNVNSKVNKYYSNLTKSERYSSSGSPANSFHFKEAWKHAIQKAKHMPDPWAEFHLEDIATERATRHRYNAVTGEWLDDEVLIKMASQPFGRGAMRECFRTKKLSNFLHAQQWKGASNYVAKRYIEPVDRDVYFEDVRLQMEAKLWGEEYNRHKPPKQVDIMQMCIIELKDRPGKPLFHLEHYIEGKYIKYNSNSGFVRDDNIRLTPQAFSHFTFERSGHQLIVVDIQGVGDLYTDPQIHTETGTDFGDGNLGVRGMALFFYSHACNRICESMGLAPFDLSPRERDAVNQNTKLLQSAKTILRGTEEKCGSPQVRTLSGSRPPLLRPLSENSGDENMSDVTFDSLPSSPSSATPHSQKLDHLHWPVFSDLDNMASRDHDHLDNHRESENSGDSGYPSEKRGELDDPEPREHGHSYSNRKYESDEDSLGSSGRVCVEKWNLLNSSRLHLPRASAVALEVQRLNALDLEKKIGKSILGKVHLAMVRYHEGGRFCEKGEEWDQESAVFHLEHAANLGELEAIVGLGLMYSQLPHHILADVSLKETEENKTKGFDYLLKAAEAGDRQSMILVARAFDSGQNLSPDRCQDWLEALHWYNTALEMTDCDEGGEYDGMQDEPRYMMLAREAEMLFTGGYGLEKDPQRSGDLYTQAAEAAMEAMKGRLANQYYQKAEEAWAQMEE

VSV-EBOV-GP = type: cell-based
PKA = PKA (Homo sapiens, UniProt P17612); assay: HotSpot in vitro kinase assay, PKA
HSV-2(G) [10] = assay: HSV binding assay (gD Western blot); type: cell-based; details: 10 μM, HaCat, 4 hours at 4° C.
Insulin Receptor = Insulin Receptor (Homo sapiens, UniProt P06213); assay: HotSpot in vitro kinase assay, Insulin Receptor
Sequence of Insulin Receptor (P06213 28-1382): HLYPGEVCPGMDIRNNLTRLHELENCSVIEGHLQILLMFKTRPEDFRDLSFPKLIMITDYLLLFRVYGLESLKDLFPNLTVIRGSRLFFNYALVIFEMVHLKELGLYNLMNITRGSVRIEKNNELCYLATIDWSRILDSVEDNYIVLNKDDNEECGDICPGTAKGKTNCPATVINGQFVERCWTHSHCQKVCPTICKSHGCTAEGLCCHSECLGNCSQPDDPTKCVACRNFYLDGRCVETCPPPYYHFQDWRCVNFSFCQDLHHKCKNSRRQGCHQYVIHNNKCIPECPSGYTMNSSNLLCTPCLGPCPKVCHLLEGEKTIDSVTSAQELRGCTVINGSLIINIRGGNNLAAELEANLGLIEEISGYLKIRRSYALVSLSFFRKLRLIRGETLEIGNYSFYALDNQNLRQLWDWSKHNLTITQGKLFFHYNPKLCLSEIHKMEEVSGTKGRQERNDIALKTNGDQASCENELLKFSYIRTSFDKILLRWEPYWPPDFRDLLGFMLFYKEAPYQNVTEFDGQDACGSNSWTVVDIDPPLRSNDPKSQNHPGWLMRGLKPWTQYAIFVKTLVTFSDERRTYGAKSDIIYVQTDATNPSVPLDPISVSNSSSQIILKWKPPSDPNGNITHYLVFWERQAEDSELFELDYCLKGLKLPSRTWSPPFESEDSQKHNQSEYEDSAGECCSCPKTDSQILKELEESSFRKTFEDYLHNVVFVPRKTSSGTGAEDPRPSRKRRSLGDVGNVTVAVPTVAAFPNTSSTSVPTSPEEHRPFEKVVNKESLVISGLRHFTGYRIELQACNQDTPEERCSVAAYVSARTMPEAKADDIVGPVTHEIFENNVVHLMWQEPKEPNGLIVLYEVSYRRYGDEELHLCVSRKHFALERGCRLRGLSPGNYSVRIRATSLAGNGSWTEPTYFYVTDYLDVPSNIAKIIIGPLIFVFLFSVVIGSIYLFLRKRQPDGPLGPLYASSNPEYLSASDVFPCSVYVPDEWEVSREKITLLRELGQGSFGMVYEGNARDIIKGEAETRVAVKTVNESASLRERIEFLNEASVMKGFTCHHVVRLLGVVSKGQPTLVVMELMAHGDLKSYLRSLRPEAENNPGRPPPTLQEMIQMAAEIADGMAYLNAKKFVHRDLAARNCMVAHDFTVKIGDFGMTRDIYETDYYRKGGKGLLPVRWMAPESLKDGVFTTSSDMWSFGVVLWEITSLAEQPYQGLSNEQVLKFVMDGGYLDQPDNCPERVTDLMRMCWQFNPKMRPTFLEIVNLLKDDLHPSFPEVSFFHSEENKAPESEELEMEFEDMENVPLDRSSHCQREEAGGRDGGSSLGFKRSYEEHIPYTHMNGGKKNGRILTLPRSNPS

PLSCR1 [11] = type: cell-based, monkey; details: Vero, 30 minutes; drugs 10 μM each

CO[C@@H]1[C@H](N(C)C(=O)CCC(=O)NCc2cn(CCCS(=O)(=O)[O-])nn2)C[C@H]2O[C@]1(C)n1c3ccccc3c3c4c(c5c6ccccc6n2c5c31)C(=O)NC4.[Na+] [CIMSS]
concentration without inhibition of intracellular Akt phosphorylation in response to insulin, relative to the parental drug [1]: 100-1000 fold
dose inhibiting intracellular Akt phosphorylation in response to insulin ([1]; HaCat, 10 μM insulin, permeabilized cells): > 100 µM
induction of apoptosis (SYTOX Green and anti-caspase staining) (HaCat cells [2]; 10 μM, 6 or 24 hours): did not induce apoptosis
PARP-1 or caspase 8 cleavage (HaCat cells [2]; 0.1, 1 or 10 μM, 8 hours): did not induce PARP-1 or caspase 8 cleavage
VSV-G infection, percentage of GFP+ cells (VSV-G): no effect
VSV-S infection (plaques or viral yields) [3]: inhibited
VSV-S infection, percentage of GFP+ cells [3]: significantly reduced
IC50 (c-Src): 11.9 nM
fold less effective than staurosporine (IC50), Akt1 (AKT1): ~230 fold
IC50 (AKT1; in vitro kinase activity, read-out: Compound IC50, AKT1): 461 nM
inhibition at 10 µM (AKT1; read-out: inhibition of Akt1): > 75%
viral plaque formation, synchronized infection (HSV-2(G) [4]): significant reduction
phosphorylation of PLSCR1 after HSV-2 (PLSCR1 [5]): not
IC50 (ABL1): 143 nM
lowest concentration significantly inhibiting HaCat cell growth (HaCat cells [6]; 24 h): no significant inhibition
lowest concentration significantly inhibiting HaCat cell growth (HaCat cells [6]; 72 h): 100 µM
extended Ca2+ release (first hour pi) (intracellular Ca2+): significant reduction
initial Ca2+ transient (first three minutes following HSV exposure) (intracellular Ca2+): did not block
percentage of GFP+ cells (HSV-1 K26GFP; 4 h post-temperature shift): significantly reduced
percentage of GFP+ cells (HSV-1 K26GFP; one hour post temperature shift): significantly decreased
IC50 (EGFR): 1610 nM
translocation of PtdS and Akt to the outer leaflet of the plasma membrane [7]: did not block
Recover %, MDCK Transport (MDCK-MDR1 cells): 96%
remaining activity at 10 µM (panel of 393 kinases [8]; read-out: % Enzyme Activity (relative to DMSO controls) CIMSS (10 μM) Data 1, kinase EIF2AK1, Data 1): 82.5%
remaining activity at 10 µM (panel of 393 kinases [8]; read-out: % Enzyme Activity (relative to DMSO controls) CIMSS (10 μM) Data 2, kinase EIF2AK1, Data 2): 81.2%
remaining activity at 10 µM (panel of 393 kinases [9]; read-out: % Enzyme Activity (relative to DMSO controls) CIMSS (10 μM) Data 1, kinase EEF2K, Data 1): 99.5%
remaining activity at 10 µM (panel of 393 kinases [9]; read-out: % Enzyme Activity (relative to DMSO controls) CIMSS (10 μM) Data 2, kinase EEF2K, Data 2): 97%
VSV-EBOV-GP infection, percentage of GFP+ cells (VSV-EBOV-GP): no effect
fold less effective than staurosporine (IC50), PKA (PKA): ~46 fold
IC50 (PKA; read-out: Compound IC50, PKA, in vitro kinase activity): 42.3 nM
HSV binding to cells (HSV-2(G) [10]): did not block
fold less effective than staurosporine (IC50), insulin receptor (Insulin Receptor): ~40 fold
IC50 (Insulin Receptor; read-out: Compound IC50, Insulin Receptor, in vitro kinase activity): 803 nM
phosphorylation of PLSCR1 after VSV-S (PLSCR1 [11]): preserved
